Experimental data taken from patent US20120165331A1, “Di/tri-aza-spiro-C9-C11alkanes” (priority 2010, published 2012).

How the values were obtained:
human orexin 2 receptor [1] = target: T1, human orexin 2 receptor (Homo sapiens, UniProt O43614); test: Radioligand binding assay ([125I]orexin A competition), human orexin 2 receptor; details: radioligand [125I]orexin A instead of [3H]-SB649868; read-out: Binding hOx2R Kd
T1 construct: expressed in transfected cells
T1 sequence (O43614 1-444): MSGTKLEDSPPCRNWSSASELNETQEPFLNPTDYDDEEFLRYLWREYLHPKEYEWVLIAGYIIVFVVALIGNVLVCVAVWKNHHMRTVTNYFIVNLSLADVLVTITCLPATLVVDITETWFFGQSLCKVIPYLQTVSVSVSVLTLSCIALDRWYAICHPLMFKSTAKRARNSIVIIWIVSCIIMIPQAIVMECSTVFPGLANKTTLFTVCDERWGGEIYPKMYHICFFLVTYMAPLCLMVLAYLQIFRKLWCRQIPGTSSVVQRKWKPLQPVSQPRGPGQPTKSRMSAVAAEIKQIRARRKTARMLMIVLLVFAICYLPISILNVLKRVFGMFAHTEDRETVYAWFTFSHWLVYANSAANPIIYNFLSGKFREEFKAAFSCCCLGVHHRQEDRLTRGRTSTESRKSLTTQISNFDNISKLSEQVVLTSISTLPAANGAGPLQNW

human orexin 1 receptor [2] = target: T2, human orexin 1 receptor (Homo sapiens, UniProt O43613); test: Radioligand binding assay ([125I]orexin A competition), human orexin 1 receptor; details: radioligand [125I]orexin A instead of [3H]-SB649868; read-out: Binding hOx1R Kd
T2 construct: expressed in transfected cells
T2 sequence (O43613 1-425): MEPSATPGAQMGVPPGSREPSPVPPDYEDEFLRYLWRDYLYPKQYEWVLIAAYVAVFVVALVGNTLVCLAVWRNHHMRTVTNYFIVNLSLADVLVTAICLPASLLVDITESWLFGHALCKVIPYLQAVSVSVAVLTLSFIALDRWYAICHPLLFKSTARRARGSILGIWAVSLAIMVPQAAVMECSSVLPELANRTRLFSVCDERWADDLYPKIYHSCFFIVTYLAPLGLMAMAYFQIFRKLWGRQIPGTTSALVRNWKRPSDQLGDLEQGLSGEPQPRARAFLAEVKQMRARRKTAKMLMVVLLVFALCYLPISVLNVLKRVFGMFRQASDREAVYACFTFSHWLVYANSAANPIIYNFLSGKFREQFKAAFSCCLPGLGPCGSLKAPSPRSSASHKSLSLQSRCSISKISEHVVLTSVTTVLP

human orexin 2 receptor [3] = target: T1, human orexin 2 receptor; test: Calcium accumulation in cells (FLIPR), antagonism of orexin A, human orexin 2 receptor; assay type: cell-based; details: calcium accumulation, antagonism of orexin A, Cheng-Prusoff corrected; read-out: FLIPR hOx2R Ki
human orexin 1 receptor [4] = target: T2, human orexin 1 receptor; test: Calcium accumulation in cells (FLIPR), antagonism of orexin A, human orexin 1 receptor; assay type: cell-based; details: for Ki: calcium accumulation, antagonism of orexin A, Cheng-Prusoff corrected, read-out: FLIPR hOx1R Ki; for inhibition at 10 µM: measured at a concentration of 10 μM of compound, read-out: FLIPR hOx1R % inhibition
human orexin 1 receptor [5] = target: T2, human orexin 1 receptor; test: Radioligand binding assay ([3H]-SB649868 competition), human orexin 1 receptor; details: radioligand [3H]-SB649868; read-out: Binding hOx1R Kd
Summary of the method: (§1)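 Membranes from CHO or HEK cells expressing the human receptor were incubated 1 h at room temperature with about 1 nM [3H]-SB649868 and test compound in HEPES pH 7.5 buffer with BSA, MgCl2, CaCl2 and tween. Non-specific binding defined with 10 μM almorexant; filtration read-out, values reported as Kd.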

human orexin 2 receptor [6] = target: T1, human orexin 2 receptor; test: Radioligand binding assay ([3H]-SB649868 competition), human orexin 2 receptor; details: radioligand [3H]-SB649868; read-out: Binding hOx2R Kd
Summary of the method: as §1

| SMILES | Kd (human orexin 2 receptor [1]) [nM] | Kd (human orexin 1 receptor [2]) [nM] | Ki (human orexin 2 receptor [3]) [nM] | Ki (human orexin 1 receptor [4]) [nM] | Kd (human orexin 1 receptor [5]) [nM] | Kd (human orexin 2 receptor [6]) [nM] | inhibition at 10 µM (human orexin 1 receptor [4]) [%] |
| --- | --- | --- | --- | --- | --- | --- | --- |
| O=C1N(Cc2cccc3ccccc23)CCC12CCN(c1nc3ccccc3[nH]1)CC2 [Example 3.7, 8-(1H-Benzo[d]imidazol-2-yl)-2-(naphthalen-1-ylmethyl)-2,8-diazaspiro[4.5]decan-1-one] | 1920 | > 10000 | – | – | – | – | – |
| O=C1N(Cc2cccc3ccccc23)CCC12CCN(c1cnc3ccccc3n1)CC2 [Example 3.11, 2-(Naphthalen-1-ylmethyl)-8-(quinoxalin-2-yl)-2,8-diazaspiro[4.5]decan-1-one] | 414 | 6360 | 195 | 1070 | – | – | – |
| O=C1N(Cc2c[nH]c3ccccc23)CCCC12CCN(c1nc3ccccc3[nH]1)C2 (stereo not drawn) [Example 7.15, 7-((1H-indol-3-yl)methyl)-2-(1H-benzo[d]imidazol-2-yl)-2,7-diazaspiro[4.5]decan-6-one] | – | – | 68 | 474 | 43 | 28 | – |
| O=C1CCC2(CCN(c3cnc4ccccc4n3)CC2)N1Cc1cccc2[nH]ccc12 [Example 8.1] | – | – | 2.1 | 78 | 148 | 32 | – |
| Cc1cc(C)nc(N2CCC3(CCC(=O)N3Cc3cccc4[nH]ccc34)CC2)n1 [Example 8.3, 1-((1H-Indol-4-yl)methyl)-8-(4,6-dimethylpyrimidin-2-yl)-1,8-diazaspiro[4.5]decan-2-one] | – | – | 2.3 | 1210 | 2380 | 30 | – |
| N#Cc1ccnc(N2CCC3(CCC(=O)N3Cc3cccc4[nH]ccc34)CC2)c1 [Example 8.4, 2-(1-((1H-Indol-4-yl)methyl)-2-oxo-1,8-diazaspiro[4.5]decan-8-yl)isonicotinonitrile] | – | – | 45 | – | > 10000 | 348 | 36 |
| Cc1ccc(C)c(CN2C(=O)CCC23CCN(c2cnc4ccccc4n2)CC3)c1 [Example 8.5, 1-(2,5-Dimethylbenzyl)-8-(quinoxalin-2-yl)-1,8-diazaspiro[4.5]decan-2-one] | – | – | 7.6 | 100 | 81 | 77 | – |
| Cc1ccc(C)c(CN2C(=O)CCC23CCN(c2nc(C)cc(C)n2)CC3)c1 [Example 8.6, 1-(2,5-Dimethylbenzyl)-8-(4,6-dimethylpyrimidin-2-yl)-1,8-diazaspiro[4.5]decan-2-one] | – | – | 10 | 2780 | 4920 | 153 | – |
| Cc1ccc(C)c(CN2C(=O)COCC23CCN(c2cnc4ccccc4n2)CC3)c1 [Example 8.7, 1-(2,5-Dimethylbenzyl)-9-(quinoxalin-2-yl)-4-oxa-1,9-diazaspiro[5.5]undecan-2-one] | – | – | 24 | 274 | 431 | 102 | – |
| O=C1COCC2(CCN(c3cnc4ccccc4n3)CC2)N1Cc1cccc2[nH]ccc12 [Example 8.9, 1-((1H-Indol-4-yl)methyl)-9-(quinoxalin-2-yl)-4-oxa-1,9-diazaspiro[5.5]undecan-2-one] | – | – | 29 | 320 | 429 | 136 | – |
| O=C1COCC2(CCN(c3cnc4ccccc4n3)CC2)N1Cc1cccc(-c2ccccn2)c1 [Example 8.11, 1-(3-(Pyridin-2-yl)benzyl)-9-(quinoxalin-2-yl)-4-oxa-1,9-diazaspiro[5.5]undecan-2-one] | – | – | 783 | 53 | 53 | 4540 | – |
| Cc1ccc(C)c(CN2C(=O)COCC23CCN(c2nc(C)cc(C)n2)CC3)c1 [Example 8.15, 1-(2,5-Dimethylbenzyl)-9-(4,6-dimethylpyrimidin-2-yl)-4-oxa-1,9-diazaspiro[5.5]undecan-2-one] | – | – | 28 | – | > 10000 | 165 | 15 |
| Cc1ccc(C)c(CN2C(=O)OCC23CCN(c2cnc4ccccc4n2)CC3)c1 [Example 8.20, 1-(2,5-Dimethylbenzyl)-8-(quinoxalin-2-yl)-3-oxa-1,8-diazaspiro[4.5]decan-2-one] | – | – | 14 | 141 | 171 | 152 | – |
| O=C1OCC2(CCN(c3cnc4ccccc4n3)CC2)N1Cc1cccc2[nH]ccc12 [Example 8.22, 1-((1H-Indol-4-yl)methyl)-8-(quinoxalin-2-yl)-3-oxa-1,8-diazaspiro[4.5]decan-2-one] | – | – | 38 | 645 | 986 | 290 | – |
